# From US20070128217A1 (priority 2003, published 2007)
# Columns and labels:
# [1] = tested on: rabbit serum obtained by immunizing a rabbit with the SARS-CoV strain Frankfurt 1; format: binding; parameters: Binding of a rabbit serum to linear peptides / Binding of a rabbit serum to looped peptides / Rabbit serum linear peptides / Rabbit serum looped peptides / Binding of a rabbit serum to linear peptides of protein N of SARS-CoV Urbani (Rabbit serum linear peptides) / Binding of a rabbit serum to looped/cyclic peptides of protein N of SARS-CoV Urbani (Rabbit serum looped peptides): unit not given here
# [2] = tested on: recombinant human anti-SARS-CoV antibody 03-018; format: binding; parameters: Binding of antibody 03-018 to linear peptides of the N protein of SARS-CoV Urbani / Binding of antibody 03-018 to looped/cyclic peptides of the N protein of SARS-CoV Urbani: unit not given here
# [3] = tested on: antibodies in sera from SARS patients (sera 1a, 1b, 2, 6, 37, 62, London, SARS-yellow, SARS-green); format: binding, human; parameters: Binding of serum 6 to linear peptides of protein X1 of SARS-CoV Urbani / Binding of serum 37 to linear peptides of protein X1 of SARS-CoV Urbani / Binding of serum 6 to looped/cyclic peptide (PEPSCAN-ELISA) / Binding of serum 37 to looped/cyclic peptide (PEPSCAN-ELISA) / Binding of serum 37 to looped/cyclic peptides of protein X1 of SARS-CoV Urbani / Binding of serum 6 to linear peptides of protein X2 / Binding of serum 37 to linear peptides of protein X2 / Binding of serum 37 to looped/cyclic peptides of protein X2 of SARS-CoV Urbani / Binding of serum 6 to linear peptides of protein M of SARS-CoV Urbani / Binding of serum 37 to linear peptides of protein M of SARS-CoV Urbani / Binding of serum 6 to looped/cyclic peptides of protein M of SARS-CoV Urbani / Binding of serum 37 to looped/cyclic peptides of protein M of SARS-CoV Urbani / Binding of serum 6 to linear peptides of protein X3 of SARS-CoV Urbani / Binding of serum 37 to linear peptides of protein X3 of SARS-CoV Urbani / Binding of serum 37 to looped/cyclic peptides of protein X3 of SARS-CoV Urbani / Binding of serum 6 to linear peptides of protein X4 of SARS-CoV Urbani / Binding of serum 37 to linear peptides of protein X4 of SARS-CoV Urbani / Binding of serum 37 to looped/cyclic peptides of protein X4 of SARS-CoV Urbani / Binding of serum 6 to linear peptides of protein X5 of SARS-CoV Urbani / Binding of serum 37 to linear peptides of protein X5 of SARS-CoV Urbani / Binding of serum 37 to looped/cyclic peptides of protein X5 of SARS-CoV Urbani / Binding of serum 6 to linear peptides of protein N of SARS-CoV Urbani / Binding of serum 37 to linear peptides of protein N of SARS-CoV Urbani / Binding of serum 6 to linear peptide (PEPSCAN-ELISA) / Binding of serum 1a to looped/cyclic peptides of protein N of SARS-CoV Urbani / Binding of serum 1b to looped/cyclic peptides of protein N of SARS-CoV Urbani / Binding of serum 2 to looped/cyclic peptides of protein N of SARS-CoV Urbani / Binding of serum 6 to looped/cyclic peptides of protein N of SARS-CoV Urbani / Binding of serum 37 to looped/cyclic peptides of protein N of SARS-CoV Urbani / Binding of serum 62 to looped/cyclic peptides of protein N of SARS-CoV Urbani / Binding of serum London to looped/cyclic peptides of protein N of SARS-CoV Urbani / Binding of serum SARS-green to looped/cyclic peptides of protein N of SARS-CoV Urbani: unit not given here
# [4] = tested on: control sera (pooled serum of ten healthy LUMC hospital workers; commercial negative donor pooled serum from the Dutch bloodbank); format: binding, human; parameters: Binding of Control serum LUMC to linear peptides / Binding of Control serum Blood-bank to linear peptides / Binding of Control serum LUMC to looped peptides / Binding of Control Serum Blood-Bank to Looped peptides / Binding of Control serum LUMC to linear peptides of the protein M of SARS-CoV Urbani / Binding of Control serum Blood-bank to linear peptides of the protein M of SARS-CoV Urbani / Binding of Control serum LUMC to looped peptides of the protein M of SARS-CoV Urbani / Binding of Control Serum Blood-Bank to Looped peptides of the protein M of SARS-CoV Urbani: unit not given here
Sequence,Binding of a rabbit serum to linear peptides of protein N of SARS-CoV Urbani (Rabbit serum linear peptides) [1],Binding of a rabbit serum to looped/cyclic peptides of protein N of SARS-CoV Urbani (Rabbit serum looped peptides) [1],Binding of antibody 03-018 to linear peptides of the N protein of SARS-CoV Urbani [2],Binding of antibody 03-018 to looped/cyclic peptides of the N protein of SARS-CoV Urbani [2],Binding of serum 1a to linear peptides of protein N of SARS-CoV Urbani [3],Binding of serum 1a to looped/cyclic peptides of protein N of SARS-CoV Urbani [3],Binding of serum 1b to linear peptides of protein N of SARS-CoV Urbani [3],Binding of serum 1b to looped/cyclic peptides of protein N of SARS-CoV Urbani [3],Binding of serum 2 to linear peptides of protein N of SARS-CoV Urbani [3],Binding of serum 2 to looped/cyclic peptides of protein N of SARS-CoV Urbani [3],Binding of serum 6 to looped/cyclic peptides of protein N of SARS-CoV Urbani [3],Binding of serum 37 to looped/cyclic peptides of protein N of SARS-CoV Urbani [3],Binding of serum 62 to looped/cyclic peptides of protein N of SARS-CoV Urbani [3],Binding of serum London to looped/cyclic peptides of protein N of SARS-CoV Urbani [3],Binding of serum SARS-green to looped/cyclic peptides of protein N of SARS-CoV Urbani [3],Binding of serum SARS-yellow to looped/cyclic peptides of protein N of SARS-CoV Urbani [3],Binding of Control Serum Blood-Bank to Looped peptides [4],Binding of Control serum Blood-bank to linear peptides [4],Binding of Control serum LUMC to linear peptides [4],Binding of Control serum LUMC to looped peptides [4],further results
NPNNNAATVLQLPQG,0.1,0.3,0.1,0.3,0.4,0.4,0.2,0.4,0.4,0.5,0.3,0.9,0.9,0.5,0.7,0.5,0.8,0.9,0.9,0.9,Binding of serum 6 to linear peptides of protein N of SARS-CoV Urbani [3]: 0.3; Binding of serum 37 to linear peptides of protein N of SARS-CoV Urbani [3]: 0.8; Binding of serum 62 to linear peptides of protein N of SARS-CoV Urbani [3]: 0.9; Binding of serum London to linear peptides of protein N of SARS-CoV Urbani [3]: 0.8; Binding of serum SARS-green to linear peptides of protein N of SARS-CoV Urbani [3]: 0.6; Binding of serum SARS-yellow to linear peptides of protein N of SARS-CoV Urbani [3]: 0.8
NSRNSTPGSSRGNSP,0.2,0.5,0.1,0.2,–,0.6,–,0.5,–,0.5,0.4,0.6,0.5,0.4,0.3,0.3,0.7,0.9,0.7,0.7,Binding of serum 1a to linear peptide (PEPSCAN-ELISA) [3]: 0.6; Binding of serum 1b to linear peptide (PEPSCAN-ELISA) [3]: 0.4; Binding of serum 2 to linear peptide (PEPSCAN-ELISA) [3]: 0.3; Binding of serum 6 to linear peptide (PEPSCAN-ELISA) [3]: 0.4; Binding of serum 37 to linear peptide (PEPSCAN-ELISA) [3]: 0.9; Binding of serum 62 to linear peptide (PEPSCAN-ELISA) [3]: 0.9; Binding of serum London to linear peptide (PEPSCAN-ELISA) [3]: 1.4; Binding of serum SARS-green to linear peptide (PEPSCAN-ELISA) [3]: 0.4; Binding of serum SARS-yellow to linear peptide (PEPSCAN-ELISA) [3]: 1.0
NTNSGPDDQIGYYRR,0.1,0.6,0.1,0.3,0.2,0.5,0.1,0.4,0.2,0.5,0.3,0.9,0.8,0.5,0.6,0.6,0.7,0.7,0.7,0.9,Binding of serum 6 to linear peptides of protein N of SARS-CoV Urbani [3]: 0.2; Binding of serum 37 to linear peptides of protein N of SARS-CoV Urbani [3]: 0.6; Binding of serum 62 to linear peptides of protein N of SARS-CoV Urbani [3]: 0.6; Binding of serum London to linear peptides of protein N of SARS-CoV Urbani [3]: 0.4; Binding of serum SARS-green to linear peptides of protein N of SARS-CoV Urbani [3]: 0.3; Binding of serum SARS-yellow to linear peptides of protein N of SARS-CoV Urbani [3]: 0.7
